Assay results reported in EP1785423A1, “Pyridopyrazine derivatives and their use as kinase modulators” (Zentaris GmbH, priority 2005, dated 2007).

Key:
Erk2 = target: T1, Erk2; assay: Cell-free kinase assay Erk2-ALPHA (ALPHA technology); type: biochemical, human; conditions: 10µM ATP
T1 construct: teils als Volllängenkinasen, teils als verkürzte Fragmente - mindestens aber bestehend aus der funktionellen Kinasedomäne; purchased Upstate 14-173
Excerpt: (§1) Die inhibitorische Wirkung der erfindungsgemäßen Verbindungen wurde an diversen humanen Serin/ Threonin-, Tyrosin- und Lipidkinasen in enzymatischen Assays getestet. Dabei wurden rekombinante humane Kinasen wie z.B. Erk2, Pl3Kalpha, - beta, -gamma, -delta, p38alpha, p38gamma, Jnk1, Jnk2 und andere eingesetzt, teils als Volllängenkinasen, teils als verkürzte Fragmente - mindestens aber bestehend aus der funktionellen Kinasedomäne. Die käuflichen Kinaseproteine (Proqinase, Upstate) wurden als rekombinante Fusionsproteine mit GST-(Glutathion-S-Transferase) oder His-Tag eingesetzt. Je nach Substrattyp wurden die verschiedenen Kinasereaktionen mittels geeigneter ALPHA™-beads (PerkinElmer) quantifiziert.
(§2) Nachfolgend wird die Substanztestung am Erk-Assay genauer beschrieben. Ausgewählte Testergebnisse der Erk2-, PI3Kalpha-Assays sind unten aufgeführt. […] Anschließend wurde die Kinasereaktion durch Zugabe von 10µl des mit anti-phospho MBP-Antikörpers (320pM, #05-429/ Upstate) präinkubierten ALPHA-Beadmixes (10µg/ml, #6760617/ PerkinElmer) in 25mM Tris, 200mM NaCl, 100mM EDTA und 0.3% BSA abgestoppt und über Nacht stehen gelassen. • b) PI3K-ALPHAs (z.B. PI3Kalpha): Die Testsubstanz, 1ng PI3Kalpha (#14-602, Upstate), 100µM ATP und 20µM PIP2-Substrat (#P4508, Echelon) auf einer 384er Optiplate (PerkinElmer) für 1h in 50mM Hepes, 50mM NaCl, 5mM MgCl2, 0.05% Chaps, 5mM DTT bei pH 7.4 inkubiert. Anschließend wurde die Kinasereaktion durch Zugabe des mit 1nM GST:Grp1-Fusionsprotein (Upstate) und 15nM biotinyliertem PIP3 (#C-39B6/ Echelon) präinkubierten ALPHA-Beadmixes (10µg/ml, #6760603/ PerkinElmer) in 50mM Hepes, 50mM NaCl, 50mM EDTA und 0.1% BSA abgestoppt und über Nacht stehen gelassen.
(§3) Die Fluoreszenzdetektion erfolgte am nächsten Morgen in einem Fusion™alpha-Gerät (PerkinElmer).
(§4) Die Berechnung der %-Inhibitionswerte je Substanz-Konzentration geschah mittels folgender Formel aus den im Fusion™alpha ermittelten Rohdaten: % Kinase Inhibition(Probe) = 100-(100×(MittelwertProbe -Mittelwert0% Kontrolle)/(Mittelwert100% Kontrolle -Mittelwert0% Kontrolle)) [formula]
(§5) Die Kontrollen wurden jeweils 8fach, die Substanzproben jeweils 2fach bestimmt. Die 0%-Kontrolle enthielt entweder kein ATP oder kein Substrat, die 100%-Kontrolle enthielt keine Testsubstanz. Die IC50-Werte wurden mit GraphPadPrism ermittelt.

PI3Kalpha = target: T2, PI3Kalpha (Homo sapiens, UniProt P42336); assay: Cell-free kinase assay PI3K-ALPHA (ALPHA technology); type: biochemical; conditions: 100µM ATP
T2 construct: teils als Volllängenkinasen, teils als verkürzte Fragmente - mindestens aber bestehend aus der funktionellen Kinasedomäne; purchased Upstate 14-602
T2 sequence (P42336 whole entry, the tested form may be a part): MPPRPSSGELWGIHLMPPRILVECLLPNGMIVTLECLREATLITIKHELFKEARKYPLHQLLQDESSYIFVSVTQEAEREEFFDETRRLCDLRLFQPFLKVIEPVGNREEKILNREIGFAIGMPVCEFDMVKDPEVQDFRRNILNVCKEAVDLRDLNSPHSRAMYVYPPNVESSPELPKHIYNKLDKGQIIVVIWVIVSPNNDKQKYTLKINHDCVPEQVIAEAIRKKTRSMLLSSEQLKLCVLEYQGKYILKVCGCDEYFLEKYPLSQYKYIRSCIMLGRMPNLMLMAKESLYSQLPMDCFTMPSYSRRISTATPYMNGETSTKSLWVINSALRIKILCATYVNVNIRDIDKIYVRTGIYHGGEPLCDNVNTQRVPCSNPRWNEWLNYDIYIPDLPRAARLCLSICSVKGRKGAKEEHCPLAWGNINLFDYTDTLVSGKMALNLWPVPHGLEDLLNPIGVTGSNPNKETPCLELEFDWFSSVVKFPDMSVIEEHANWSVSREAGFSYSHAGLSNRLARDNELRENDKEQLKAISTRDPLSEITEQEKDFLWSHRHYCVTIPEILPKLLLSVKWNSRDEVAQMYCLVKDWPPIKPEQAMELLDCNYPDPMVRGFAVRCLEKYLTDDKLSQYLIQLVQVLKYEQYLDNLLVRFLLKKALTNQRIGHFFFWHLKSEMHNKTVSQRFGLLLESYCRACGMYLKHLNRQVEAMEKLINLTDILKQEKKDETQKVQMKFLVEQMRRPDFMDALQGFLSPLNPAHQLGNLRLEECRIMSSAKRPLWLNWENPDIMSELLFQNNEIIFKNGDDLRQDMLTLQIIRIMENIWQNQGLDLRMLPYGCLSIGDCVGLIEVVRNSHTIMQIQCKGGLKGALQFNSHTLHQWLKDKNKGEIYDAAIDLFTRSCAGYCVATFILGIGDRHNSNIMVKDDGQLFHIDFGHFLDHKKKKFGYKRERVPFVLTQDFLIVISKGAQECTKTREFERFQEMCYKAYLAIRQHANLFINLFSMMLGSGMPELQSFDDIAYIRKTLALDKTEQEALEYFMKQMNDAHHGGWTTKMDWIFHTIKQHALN
T2 sequence (P27986 whole entry partner, the tested form may be a part): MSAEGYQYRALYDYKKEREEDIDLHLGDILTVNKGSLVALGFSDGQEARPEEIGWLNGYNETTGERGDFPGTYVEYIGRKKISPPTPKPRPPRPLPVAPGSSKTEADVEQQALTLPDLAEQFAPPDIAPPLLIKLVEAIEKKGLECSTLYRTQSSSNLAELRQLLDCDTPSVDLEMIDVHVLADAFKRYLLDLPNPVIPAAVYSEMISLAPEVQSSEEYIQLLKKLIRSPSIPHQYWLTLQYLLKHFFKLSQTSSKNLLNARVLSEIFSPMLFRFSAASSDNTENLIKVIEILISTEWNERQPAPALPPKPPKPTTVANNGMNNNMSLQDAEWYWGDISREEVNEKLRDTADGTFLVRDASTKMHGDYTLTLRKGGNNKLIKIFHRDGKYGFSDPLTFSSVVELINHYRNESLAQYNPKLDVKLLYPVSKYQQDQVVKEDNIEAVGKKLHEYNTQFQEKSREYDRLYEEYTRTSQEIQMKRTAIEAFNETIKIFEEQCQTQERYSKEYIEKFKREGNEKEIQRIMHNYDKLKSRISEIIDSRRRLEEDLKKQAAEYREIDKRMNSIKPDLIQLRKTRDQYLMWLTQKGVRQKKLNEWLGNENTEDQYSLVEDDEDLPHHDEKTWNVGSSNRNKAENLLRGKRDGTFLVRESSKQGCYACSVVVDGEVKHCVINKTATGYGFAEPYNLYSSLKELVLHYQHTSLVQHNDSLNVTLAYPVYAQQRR
Excerpt: as §1, §2, §3, §4, §5

BxPC3 = assay: Cellular anti-proliferative XTT assay; type: cell-based; conditions: Homo sapiens, BXPC-3, 45h incubation
Excerpt: (§6) Das Prinzip dieses Testes beruht auf der intrazellulären Reduktion des Tetrazolium-Farbstoffes XTT (Natrium 3'-[1-(phenylaminocarbonyl)-3,4-tetrazolium]-bis(4-methoxy-6-nitro)benzensulfonsäure, Sigma) zu einem Formazan-Farbstoff durch mitochondriale Dehydrogenasen. Der Farbstoff wird nur von stoffwechselaktiven Zellen gebildet, seine photometrisch messbare Intensität ist ein quantitativer Indikator für das Vorhandensein lebender Zellen. Die Reduzierung der Farbstoffbildung durch Inkubation der Zellen mit Substanzen dient als Parameter für die anti-proliferative Wirkung.
(§7) Die Tumorzelllinien (ATCC) wurden in 96er Mikrotiterplatten in definierter Zellzahl (5000 Zellen/ Well für BxPC3 und Hct116; 10000 Zellen/ Well für MDA MB468) eingesäat und anschließend über Nacht im Brutschrank bei 37°C, 5% CO2 und 95% Luftfeuchtigkeit inkubiert. Die Testsubstanzen wurden als Stammlösungen (10 mM) in DMSO angesetzt. […] Die Zellplatten wurden dann für 45h im Brutschrank bei 37°C, 5% CO2 und 95% Luftfeuchtigkeit inkubiert.
(§8) Für die Detektionssreaktion wurde das Substrat XTT mit PMS (N-Methyl Dibenzopyrazine Methylsulfat, Sigma) versetzt und zu den Zellen gegeben, sodass eine finale Konzentration von 325µg XTT/ml und 2.5µg PMS/ml resultierte. Es wurde dann für 3h bei 37°C, 95% Luftfeuchte inkubiert. Anschließend konnte das durch zelluläre Dehydrogenasen gebildete Formazan Salz bei einer Adsorption bei 490nm quantifiziert werden.
(§9) Die Auswertung der %-Inhibitions-Werte geschah mittels folgender Formel aus den Werten für die jeweils gemessenen optischen Dichten bei 490nm: % Inhibition Zellproliferation(Probe) = 100-(100×(MittelwertProbe -Mittelwert0% Kontrolle)/(Mittelwert100% Kontrolle -Mittelwert0% Kontrolle)) [formula]
(§10) Die Kontrollen wurden jeweils 8fach, die Substanzproben jeweils 2fach bestimmt. Die 0%-Kontrolle enthielt keine Zellen, die 100%-Kontrolle enthielt keine Testsubstanz. Die EC50-Werte wurden mit GraphPadPrism ermittelt.

Hct116 = assay: Cellular anti-proliferative XTT assay; type: cell-based; conditions: Homo sapiens, HCT-116, 45h incubation
Excerpt: as §6, §7, §8, §9, §10

MDA-MB468 = assay: Cellular anti-proliferative XTT assay; type: cell-based; conditions: Homo sapiens, MDA-MB-468, 45h incubation
Excerpt: as §6, §7, §8, §9, §10

T1 sequence (P63085 2-358 limits assumed): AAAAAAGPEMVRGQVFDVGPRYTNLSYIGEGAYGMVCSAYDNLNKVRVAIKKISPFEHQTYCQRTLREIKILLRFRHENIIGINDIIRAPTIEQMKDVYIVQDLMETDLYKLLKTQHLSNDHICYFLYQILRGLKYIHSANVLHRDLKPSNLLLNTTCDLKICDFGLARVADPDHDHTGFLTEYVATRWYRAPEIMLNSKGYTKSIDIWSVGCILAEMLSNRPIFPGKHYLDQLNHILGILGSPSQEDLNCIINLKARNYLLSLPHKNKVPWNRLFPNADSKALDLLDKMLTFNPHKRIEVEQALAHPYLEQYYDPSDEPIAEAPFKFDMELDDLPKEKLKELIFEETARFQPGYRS

Row | SMILES | IC50 (Erk2) [µM] | IC50 (PI3Kalpha) [µM] | EC50 (BxPC3) [µM] | EC50 (Hct116) [µM] | EC50 (MDA-MB468) [µM]
1 | CCNC(=O)Nc1ccc2ncc(-c3ccc(OC(=O)Oc4ccccc4)cc3)nc2n1 [Beispiel 11, Kohlensäure-4-[6-(3-ethyl-harnstoff)-pyrido[2,3-b]pyrazin-3-yl]-phenyl-phenyl-ester] | 0.27 | > 31.6 | – | – | –
2 | CONC(=O)Nc1ccc2ncc(-c3ccccc3)nc2n1 [Beispiel 7, 1-Methoxy-3-(3-phenyl-pyrido[2,3-b]pyrazin-6-yl)-harnstoff] | 0.407 | 27.9 | – | – | –
3 | CCNC(=O)Nc1ccc2ncc(C=CCOC)nc2n1 [Beispiel 6, 1-Ethyl-3-[3-((E)-3-methoxy-propenyl)-pyrido[2,3-b]pyrazin-6-yl]-harnstoff] | – | 21.3 | – | – | –
4 | CCNC(=O)Nc1ccc2ncc(-c3ccc(OC(=O)OCCOC)cc3)nc2n1 [Beispiel 10, Kohlensäure-4-[6-(3-ethyl-harnstoff)-pyrido[2,3-b]pyrazin-3-yl]-phenyl-(2-methoxy-ethyl)-ester] | 0.088 | 2.6 | 9 | 5 | 7
5 | CCNC(=O)Nc1ccc2ncc(C#CC3CC3)nc2n1 [Beispiel 3, 1-(3-Cyclopropylethynyl-pyrido[2,3-b]pyrazin-6-yl)-3-ethyl-harnstoff] | 5.8 | 16.8 | – | – | –
6 | C=CCONC(=O)Nc1ccc2ncc(-c3ccccc3)nc2n1 [Beispiel 8, 1-Allyloxy-3-(3-phenyl-pyrido[2,3-b]pyrazin-6-yl)-harnstoff] | 4.1 | 27.2 | – | – | –
7 | CCNC(=O)Nc1ccc2ncc(-c3ccc(OC(=O)C=Cc4ccccc4)cc3)nc2n1 [Beispiel 13, (E)-3-Phenyl-acrylsäure-4-[6-(3-ethyl-harnstoff)-pyrido[2,3-b]pyrazin-3-yl]-phenyl-ester] | – | > 31.6 | – | – | –
8 | CCNC(=O)Nc1ccc2ncc(-c3ccc(OC(=O)N(CC)CC)cc3)nc2n1 [Beispiel 12, Diethyl-carbaminsäure-4-[6-(3-ethyl-harnstoff)-pyrido[2,3-b]pyrazin-3-yl]-phenyl-ester] | 2.8 | 3.4 | – | – | –
9 | CCNC(=O)Nc1ccc2ncc(-c3ccc(OC(=O)OC)cc3)nc2n1 [Beispiel 9, Kohlensäure-4-[6-(3-ethyl-harnstoff)-pyrido[2,3-b]pyrazin-3-yl]-phenyl-methyl-ester] | 0.117 | 7.8 | 20 | 10 | 15
